What was measured:
[1] = tested on: MCF-7; assay: 72 h MTT anti-proliferative assay under hypoxic conditions, MCF-7; assay type: cell-based; details: Homo sapiens, MCF7, mean ± S.D. of three experiments
Experimental: Therefore, QBS 11c and 13b were further screened for their potential in vitro anti-proliferative action against two breast cancer cell lines (MDA-MB-231 and MCF-7) under hypoxic conditions, exploiting a 72 h MTT assay protocol and using Doxorubicin as a positive control drug.
All adopted procedures for the conducted in vitro biological assays were performed as described earlier; CA (stopped-flow), cytotoxicity (MTT [37, 38]), and assessment of apoptotic markers assays, as well as induction of hypoxia with cobalt chloride, and were mentioned in the Supporting Materials.
1. Carbonic anhydrase inhibition assay
16) herein reported have were assayed utilizing an instrument of Applied Photophysics stopped-flow. The enzymes are recombinant proteins prepared in our lab. Phenol red (at a concentration of 0.2 mM) has been used as indicator, working at the absorbance maximum of 557 nm, with 20 mM Hepes (pH 7.5) as buffer, and 20 mM Na2SO4 (for maintaining constant the ionic strength), […]
parameters and inhibition constants. For each inhibitor at least six traces of the initial 5-10% of the reaction have been used for determining the initial velocity . Th e un cat aly zed rates were determined in the same manner and subtracted from the total observed rates. Stock solutions of inhibitor (0.1 mM) were prepared in distilled-deionized water and dilutions up to 0.01 nM were done thereafter with the assay buffer. Inhibitor and enzyme solutions were preincubated together for 15 min at room temperature prior to assay, in order to allow fo r the formation of the E-I complex. […]
Cells were sub-cultured with try psine /EDTA solution, counted with haemocy tometer and plated onto 96-well plates (5000 cells/well) and left overnight to form a semi-confluent […]
monolay er. […] DMSO (100 µl/well) was added to dissolve the formazan crystals with shaking for 10 min after which the absorbance was read at 590 nm against no cell blanks on a FLuo Star Optima microplate reader (BMG technologies, Germany). Cell proliferation was calculated comparing the OD values of the DMSO control wells and those of the samples

[2] = molecular target: hCA II (Homo sapiens, UniProt P00918); assay: stopped flow carbon dioxide hydrase assay, hCA II

IC50 [1] [nM] | Ki [2] [nM] | Structure (SMILES)
3690 ± 170 | 58.4 | COc1ccc2nccc(Nc3ccc(S(N)(=O)=O)cc3)c2c1 [13b, 4-((6-methoxyquinolin-4-yl)amino)benzenesulfonamide]
430 ± 20 | 155 | NS(=O)(=O)c1cccc(Nc2ccnc3ccc(Cl)cc23)c1 [11c, 3-((6-chloroquinolin-4-yl)amino)benzenesulfonamide]

From article PMC8541628, “Development of Novel Quinoline-Based Sulfonamides as Selective Cancer-Associated Carbonic Anhydrase Isoform IX Inhibitors” (International Journal of Molecular Sciences, 2021)
